# In patent publication US20260125382A1, “COMPOUNDS FOR INHIBITING OR DEGRADING CDK2 AND/OR CDK9 AND MEDICINAL USE THEREOF” (KOREA RESEARCH INSTITUTE OF CHEMICAL TECHNOLOGY, priority 2022, published 2026):
# What was measured:
# CDK2 = target: T1, CDK2 (Homo sapiens, UniProt P24941); experiment: CDK protein degradation activity (Western blotting), CDK2; assay type: cell-based; conditions: MDA-MB-231 cells, 16 hours, Western blot
# T1 construct: endogenous in cells; host or cells: MDA-MB-231
# In short: (§1)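 Breast cancer line MDA-MB-231, 16 h compound treatment (100 nM–10 μM final, three doses). Immunoblot quantification of CDK2/CDK9 versus tubulin, normalized to DMSO control.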
# CDK9 = target: T2, CDK9 (Homo sapiens, UniProt P50750); experiment: CDK protein degradation activity (Western blotting), CDK9; assay type: cell-based; conditions: MDA-MB-231 cells, 16 hours, Western blot
# T2 construct: endogenous in cells; host or cells: MDA-MB-231
# In short: as §1
# CDK2/cyclin A = target: T3, CDK2/cyclin A (Homo sapiens, UniProt P24941); experiment: CDK protein inhibition, KINOMEscan (Eurofins), CDK2/cyclin A; assay type: binding; conditions: for IC50: Table 17, unit inferred
# T3 construct: purchased Eurofins Scientific
# T2 sequence (P50750 whole entry): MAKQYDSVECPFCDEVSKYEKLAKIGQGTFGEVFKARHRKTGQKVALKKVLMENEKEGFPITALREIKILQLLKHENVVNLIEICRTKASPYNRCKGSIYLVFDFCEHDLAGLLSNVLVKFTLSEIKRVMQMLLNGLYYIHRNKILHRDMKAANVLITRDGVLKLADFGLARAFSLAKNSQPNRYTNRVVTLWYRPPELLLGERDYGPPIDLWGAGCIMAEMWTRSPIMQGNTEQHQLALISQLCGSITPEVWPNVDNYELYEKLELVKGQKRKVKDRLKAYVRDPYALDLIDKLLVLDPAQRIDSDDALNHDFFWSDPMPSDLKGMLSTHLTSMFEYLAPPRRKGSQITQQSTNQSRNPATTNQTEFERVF
Compound,Enzyme degradation CDK2 (% remaining) @ 0.1 μM (CDK2),Enzyme degradation CDK2 (% remaining) @ 1 μM (CDK2),Enzyme degradation CDK2 (% remaining) @ 10 μM (CDK2),Enzyme degradation CDK9 (% remaining) @ 0.1 μM (CDK9),Enzyme degradation CDK9 (% remaining) @ 1 μM (CDK9),Enzyme degradation CDK9 (% remaining) @ 10 μM (CDK9),IC50 (CDK2/cyclin A),CDK2/cyclin A inhibition (%) (at concentration of 1 μM) (CDK2/cyclin A)
"Cc1cccc(C(=O)N[C@H]2C[C@@H](n3cnc4c(Nc5ccc(N6CCN(CC7CCN(C(=O)COc8cccc9c8C(=O)N(C8CCC(=O)NC8=O)C9=O)CC7)CC6)cc5)ncnc43)C2)n1 (some centres unmarked) [Compound 91, N-((1s,3s)-3-(6-((4-(4-((1-(2-((2-(2,6-dioxopiperidin-3-yl)-1,3-dioxoisoindolin-4-yl)oxy)acetyl)piperidin-4-yl)methyl)piperazin-1-yl)phenyl)amino)-9H-purin-9-yl)cyclobutyl)-6-methylpicolinamide]",0/0/0%,0/0/0%,0/0/0%,0/0/0%,0/0/0%,0/0/0%,0.613 µM,
"Cc1cccc(C(=O)N[C@H]2C[C@@H](n3cnc4c(NCCC5CCN(CC6CCN(C(=O)CNc7ccc8c(c7)C(=O)N(C7CCC(=O)NC7=O)C8=O)CC6)CC5)ncnc43)C2)n1 (some centres unmarked) [Compound 125, N-((1s,3s)-3-(6-((2-(1-((1-((2-(2,6-dioxopiperidin-3-yl)-1,3-dioxoisoindolin-5-yl)glycyl)piperidin-4-yl)methyl)piperidin-4-yl)ethyl)amino)-9H-purin-9-yl)cyclobutyl)-6-methylpicolinamide]",30%,10%,20%,0/0/0%,0/0/0%,0/0/0%,1.29 µM,

# Next, values leading:
Enzyme degradation CDK2 (% remaining) @ 0.1 μM (CDK2),Enzyme degradation CDK2 (% remaining) @ 1 μM (CDK2),Enzyme degradation CDK2 (% remaining) @ 10 μM (CDK2),Enzyme degradation CDK9 (% remaining) @ 0.1 μM (CDK9),Enzyme degradation CDK9 (% remaining) @ 1 μM (CDK9),Enzyme degradation CDK9 (% remaining) @ 10 μM (CDK9),IC50 (CDK2/cyclin A),CDK2/cyclin A inhibition (%) (at concentration of 1 μM) (CDK2/cyclin A),Compound
30%,40%,50%,0/0/0%,0/0/0%,0/0/0%,> 10 µM,,"Cc1cccc(C(=O)N[C@H]2C[C@H](n3cnc4c(NCC5CCN(CC6CCN(C(=O)CNc7ccc8c(c7)C(=O)N(C7CCC(=O)NC7=O)C8=O)CC6)CC5)ncnc43)C2)n1 (some centres unmarked) [Compound 74, N-((1r,3r)-3-(6-(((1-((1-((2-(2,6-dioxopiperidin-3-yl)-1,3-dioxoisoindolin-5-yl)glycyl)piperidin-4-yl)methyl)piperidin-4-yl)methyl)amino)-9H-purin-9-yl)cyclobutyl)-6-methylpicolinamide]"
100%,50%,20%,30%,10%,0%,,87%,"Cc1cccc(C(=O)N[C@H]2C[C@H](n3cnc4c(NCC5CCN(C(=O)CCCCCNc6ccc7c(c6)C(=O)N([C@@H]6CCC(=O)NC6=O)C7=O)CC5)ncnc43)C2)n1 [Compound 65, N-((1r,3r)-3-(6-(((1-(6-((2-(2,6-dioxopiperidin-3-yl)-1,3-dioxoisoindolin-5-yl)amino)hexanoyl)piperidin-4-yl)methyl)amino)-9H-purin-9-yl)cyclobutyl)-6-methylpicolinamide]"
,,,,,,,88%,"Cc1cccc(C(=O)NC2CC(n3cnc4c(NC5CCN(C(=O)CCCCCNc6cccc7c6C(=O)N([C@@H]6CCC(=O)NC6=O)C7=O)CC5)ncnc43)C2)n1 (some centres unmarked) [Compound 6, N-((1r,3r)-3-(6-((1-(6-((2-(2,6-dioxopiperidin-3-yl)-1,3-dioxoisoindolin-4-yl)amino)hexanoyl)piperidin-4-yl)amino)-9H-purin-9-yl)cyclobutyl)-6-methylpicolinamide]"
